The results in this text go back to US7115750B1, “Melanin concentrating hormone antagonist” (Takeda Pharmaceutical Company Limited, priority 1999, dated 2006).

By melting point is commonly meant the temperature, or range, at which the solid turns liquid.

Turning to `CN(C)CC1CCc2cc(NC(=O)c3ccc(-c4ccc(C=O)cc4)cc3)ccc2C1` (centres unmarked) [Example 20, N-[6-[(N,N-Dimethylamino)methyl]-5,6,7,8-tetrahydro-2-naphthalenyl]-4′-formyl[1,1′-biphenyl]-4-carboxamide], the melting point lay in the range of 130 to 132 °C.
For the compound `CN(C)CCNC(=O)Cc1ccc(NC(=O)c2cc3ccccc3s2)cc1` [Example 185, N-[4-[2-[[2-(Dimethylamino)ethyl]amino]-2-oxoethyl]phenyl]-1-benzothiophen-2-carboxamide], the melting point was 186 to 187 °C (dec.).
With `Cc1ccc(C2CCN(C(=O)Nc3ccc4c(c3)CCC(CN3CCN(C)CC3)=C4)CC2)cc1` [Example 241, 4-(4-Methylphenyl)-N-[6-[(4-methyl-1-piperazinyl)methyl]-7,8-dihydro-2-naphthalenyl]-1-piperidinecarboxamide], the melting point was 214 to 216 °C.
Compound `Cc1cc(Br)ccc1C(=O)Nc1ccc2c(c1)CCC(CN(C)C)C2` (centres unmarked) [Example 24, 4-Bromo-N-[6-[(N,N-dimethylamino)methyl]-5,6,7,8-tetrahydro-2-naphthalenyl]-2-methylbenzamide] had a melting point of 140 to 142 °C.
As to `Cl.O=C(Nc1ccc(C(=O)C2CCCNC2)cc1)c1ccc(-c2ccc(Cl)cc2)cc1` (centres unmarked), the melting point is 222 to 225 °C (dec.).
The compound `CN(C)CC1COc2cc(NC(=O)c3ccc(-c4ccc(Cl)cc4)cc3)ccc2O1` (centres unmarked) [Example 106, 4′-Chloro-N-[2-[(dimethylamino)methyl]-2,3-dihydro-1,4-benzodioxin-6-yl][1,1′-biphenyl]-4-carboxamide] yielded a melting point of 215 to 217 °C.
Compound `O=C(Nc1ccc2c(c1)CCC(CN1CCCC1)=C2)N1CC=C(c2ccc(Cl)cc2)CC1` [Example 159] gave a melting point of 217 to 218 °C.
With `CC1=C(CN2CCCC2)CCc2cc(NC(=O)c3ccc(-c4ccccc4)nc3)ccc21` [Example 233, N-[5-Methyl-6-(1-pyrrolidinylmethyl)-7,8-dihydro-2-naphthalenyl]-6-phenylnicotinamide], the melting point fell in the range of 178 to 179 °C.
Compound `CN(C)CC1COc2cc(NC(=O)c3ccc(-c4ccc(F)cc4F)cc3)ccc2O1` (centres unmarked) [Example 107, 2′,4′-Difluoro-N-[2-[(dimethylamino)methyl]-2,3-dihydro-1,4-benzodioxin-6-yl][1,1′-biphenyl]-4-carboxamide] registered a melting point of 209 to 210 °C.
Consider `Cl.O=C(Nc1ccc(CC2CCCNC2)cc1)c1ccc(-c2ccc(F)cc2)cc1` (centres unmarked), for which the melting point is 205 °C (dec.).
Take `CN(C)CC1=Cc2ccc(NC(=O)c3ccc(-c4ccccc4)cc3)cc2CC1` [Example 47, N-[6-[(Dimethylamino)methyl]-7,8-dihydro-2-naphthalenyl][1,1′-biphenyl]-4-carboxamide]: the melting point lay in the range of 173 to 175 °C.
`COc1ccc(-c2ccc(C(=O)Nc3ccc4c(c3)CCC(CN3CCCC3)=C4C)cn2)cc1` [Example 116, 6-(4-Methoxyphenyl)-N-[5-methyl-6-(1-pyrrolidinylmethyl)-7,8-dihydro-2-naphthalenyl]nicotinamide] gave a melting point of 165 to 167 °C.
The value for `CN(C)CCNC(=O)Cc1ccc(NC(=O)c2ccc(OCc3ccccc3)cc2)cc1` [Example 195] was 190 to 192 °C (dec.).
For the compound `CN(C)CC1CCc2cc(NC(=O)c3ccc(C(=O)Nc4ccccc4)cc3)ccc2C1` (centres unmarked) [Example 10, N^1-[2-(N,N-Dimethylamino)methyl-6-tetralinyl]-N^4-phenyl terephthalamide], the melting point is 238 to 240 °C (dec.).
In the case of `O=C(Nc1ccc2c(c1)CCC(CN1CCCC1)=C2)c1ccc(-c2ccc(Cl)cc2)nc1` [Example 162, 6-(4-Chlorophenyl)-N-[6-(1-pyrrolidinylmethyl)-7,8-dihydro-2-naphthalenyl]nicotinamide], the melting point was in the range of 252 to 253 °C.
The value for `CC1=C(CN(C)C)CCc2cc(NC(=O)c3ccc(-c4ccc(Cl)cc4)cc3)ccc21` [Example 111, 4′-Chloro-N-[6-[(dimethylamino)methyl]-5-methyl-7,8-dihydro-2-naphthalenyl][1,1′-biphenyl]-4-carboxamide] was 199 to 204 °C; that for `O=C(NCCN1CCCCC1)c1ccc(NC(=O)c2ccc(-c3ccccc3)cc2)cc1` [compound 22, N-[4-[[2-(Piperidinoethyl)amino]carbonyl]phenyl] 4-biphenylylcarboxamide] was 247 to 252 °C (dec.).
Then `O=C(Nc1ccc2c(c1)OCC(CN1CCCC1)O2)c1ccc(-c2ccc(Cl)cc2)nc1` (centres unmarked) [Example 108, 6=(4-Chlorophenyl)-N-[2-(1-pyrrolidinylmethyl)-2,3-dihydro-1,4-benzodioxin-6-yl]nicotinamide], with 218 to 220 °C; and `CN(C)CC1CCc2cc(NC(=O)c3ccc(-c4ccc(CO)cc4)cc3)ccc2C1` (centres unmarked) [Example 21, N-[6-[(N,N-Dimethylamino)methyl]-5,6,7,8-tetrahydro-2-naphthalenyl]-4′-(hydroxymethyl)[1,1′-biphenyl]-4-carboxamide], with 138 to 139 °C; and `CCC1=C(CN(C)C)CCc2cc(NC(=O)c3ccc(-c4ccc(Cl)cc4)cc3)ccc21` [Example 112, 4′-Chloro-N-[6-[(dimethylamino)methyl]-S-ethyl-7,8-dihydro-2-naphthalenyl][1,1′-biphenyl]-4-carboxamide], with 201 to 204 °C.
`CCCc1ccc(-c2ccc(C(=O)Nc3ccc4c(c3)CCC(CN(C)C)C4)cc2)cc1` (centres unmarked) [Example 22, N-[6-[(N,N-Dimethylamino)methyl]-5,6,7,8-tetrahydro-2-naphthalenyl]-4′-propyl[1,1′-biphenyl]-4-carboxamide] displayed a melting point of 186 to 188 °C.
Turning to `CCOC(=O)c1ccc(-c2ccc(C(=O)Nc3ccc4c(c3)CCC(CN(C)C)C4)cc2)cc1` (centres unmarked) [Example 35, Ethyl 4′-[[[6-[(N,N-dimethylamino)methyl]-5,6,7,8-tetrahydro-2-naphthalenyl]amino]carbonyl][1,1′-biphenyl]-4-carboxylate], the melting point was in the range of 156 to 158 °C.
Then `Cc1cc(C(=O)Nc2ccc3c(c2)CCC(CN(C)C)C3)ccc1Br` (centres unmarked) [Example 25, 4-Bromo-N-[6[(N,N-dimethylamino)methyl]-5,6,7,8-tetrahydro-2-naphthalenyl]-3-methylbenzamide], with 154 to 155 °C; and `CN(C)CC1CCc2cc(NC(=O)c3ccc(-c4ccc(Cl)cc4)cc3Cl)ccc2C1` (centres unmarked) [Example 26, 3,4′-Dichloro-N-[6-[(N,N-dimethylamino)methyl]-5,6,7,8-tetrahydro-2-naphthalenyl][1,1′-biphenyl]-4-carboxamide], with 177 to 179 °C; and `Cc1ccc(-c2ccc(C(=O)Nc3ccc4c(c3)CCC(CN(C)C)=C4)cc2)cc1` [Example 85], with 195 to 196 °C.
On to `CN(C)CC1=Cc2ccc(NC(=O)CNC(=O)c3ccc(Cl)cc3)cc2CC1` [Example 126, 4-Chloro-N-[2-[[6-[(dimethylamino)methyl]-7,8-dihydro-2-naphthalenyl]amino]-2-oxoethyl]benzamide], for which the melting point was 168 to 171 °C.
Consider `COc1ccc2[nH]c(C)c(CC(=O)Nc3ccc(CC(=O)NCCN(C)C)cc3)c2c1` [Example 188, N-[4-[2-[[2-(Dimethylamino)ethyl]amino]-2-oxoethyl]phenyl]-2-(5-methoxy-2-methyl-1H-indol-3-yl)acetamide], for which the melting point was in the range of 125 to 126 °C.
The value for `CN(C)CC1CCc2cc(NC(=O)c3ccc(-c4ccc(Cl)cc4)cc3)ccc2C1` (centres unmarked) [Example 12, (4′-Chlorobiphenyl-4-yl)-N-[2-(N,N-dimethylamino)methyl-6-tetralinyl]carboxamide] was 187 to 189 °C.
As for `O=C(Nc1ccc2c(c1)CCC(CCN1CCCC1)=C2)c1ccc(-c2ccc(Cl)cc2)cc1` [Example 206, 4′-Chloro-N-[6-[2-(1-pyrrolidinyl)ethyl]-7,8-dihydro-2-naphthalenyl][1,1′-biphenyl]-4-carboxamide], the melting point is 207 to 209 °C.
For the compound `CN(C)CC1=Cc2ncc(NC(=O)c3ccc(-c4ccc(Cl)cc4)cc3)cc2CC1` [Example 134, 4′-Chloro-N-[7-[(dimethylamino)methyl]-5,6-dihydro-3-quinolinyl][1,1′-biphenyl]-4-carboxamide], the melting point was 220 to 222 °C.
In turn, `Cc1cc(C(=O)Nc2ccc3c(c2)CCC(CN(C)C)C3)ccc1-c1ccc(Cl)cc1` (centres unmarked) [Example 28, 4′-Chloro-N-[6-[(N,N-dimethylamino)methyl]-5,6,7,8-tetrahydro-2-naphthalenyl]-2-methyl[1,1′-biphenyl]-4-carboxamide] registered a melting point of 193 to 195 °C.
The value for `CN(C)CC1CCc2cc(NC(=O)c3cc4ccccc4[nH]3)ccc2C1` (centres unmarked) [Example 122] was 190 to 192 °C; that for `COc1ccc(-c2ccc(C(=O)Nc3ccc4c(c3)CCC(CN3CCCC3)=C4C)cc2)cc1` [Example 200, 4′-Methoxy-N-[6-(1-pyrrolidinylmethyl)-5-methyl-7,8-dihydro-2-naphthalenyl][1,1′-biphenyl]-4-carboxamide] was 179 to 180 °C.
Then `Cl.O=C(Nc1ccc(CC2CCCNC2)cc1)c1ccc(-c2ccccc2)cc1` (centres unmarked), with 218 to 220 °C (dec.); and `CN(C)CC1CCc2cc(NC(=O)c3cccc(-c4ccccc4)c3)ccc2C1` (centres unmarked) [Example 120, N-[6-[(Dimethylamino)methyl]-5,6,7,8-tetrahydro-2-naphthalenyl][1,1′-biphenyl]-3-carboxamide], with 145 to 148 °C.
`O=C(Nc1ccc2c(c1)CCC(CN1CCCC1)=C2)c1ccc(-c2ccc(F)cc2F)nc1` [Example 87, 6-(2,4-Difluorophenyl)-N-[6-[(1-pyrrolidinyl)methyl]-7,8-dihydro-2-naphthalenyl]nicotinamide] gave a melting point of 169 to 170 °C.
`O=C(Nc1ccc2c(c1)CCC(CN1CCCC1)=C2)N1CCN(c2ccc(F)cc2)CC1` [Example 100, 4-(4-Fluorophenyl)-N-[6-(1-pyrrolidinylmethyl)-7,8-dihydro-2-naphthalenyl]-1-piperazinecarboxamide] returned a melting point of 179 to 181 °C.
`CN(C)CC1=Cc2ccc(NC(=O)c3ccc(-c4ccc(F)cc4F)nc3)cc2CC1` [Example 152, 6-(2,4-Difluorophenyl)-N-[6-[(dimethylamino)methyl]-7,8-dihydro-2-naphthalenyl]nicotinamide] had a melting point of 162 to 163 °C.
